According to ChEMBL document CHEMBL3400015, “Tertiary amides of Salinomycin: A new group of antibacterial agents against Bacillus anthracis and methicillin-resistant Staphylococcus epidermidis” (Bioorg Med Chem Lett, 2015):
≈ marks a conversion by molar mass, not a printed value.

Experiments:
[1] = system: Staphylococcus epidermidis; assay: Antimicrobial activity against methicillin-resistant Staphylococcus epidermidis isolate 459/11 after 18 hrs by twofold serial broth dilution method; assay type: functional; details: isolate 459/11, 18 h
[2] = system: Pseudomonas aeruginosa; assay: Antimicrobial activity against Pseudomonas aeruginosa ATCC 27853 after 18 hrs by twofold serial broth dilution method; assay type: functional; details: ATCC 27853, 18 h
[3] = system: Staphylococcus aureus; assay: Bactericidal activity against Staphylococcus aureus […] after 24 hrs; assay type: functional; details: read-out: MBC99.9
[4] = system: Staphylococcus epidermidis; assay: Antimicrobial activity against methicillin-resistant Staphylococcus epidermidis isolate 469/11 after 18 hrs by twofold serial broth dilution method; assay type: functional; details: isolate 469/11, 18 h
[5] = system: Staphylococcus epidermidis; assay: Antimicrobial activity against methicillin-resistant Staphylococcus epidermidis isolate 407/10 after 18 hrs by twofold serial broth dilution method; assay type: functional; details: isolate 407/10, 18 h
[6] = system: Staphylococcus epidermidis; assay: Bactericidal activity against methicillin-resistant Staphylococcus epidermidis isolate 454/11 after 24 hrs; assay type: functional; details: isolate 454/11, 24 h, read-out: MBC99.9
[7] = system: Staphylococcus epidermidis; assay: Bactericidal activity against methicillin-resistant Staphylococcus epidermidis isolate 458/11 after 24 hrs; assay type: functional; details: isolate 458/11, 24 h, read-out: MBC99.9
[8] = system: Staphylococcus epidermidis; assay: Bactericidal activity against methicillin-resistant Staphylococcus epidermidis isolate 407/10 after 24 hrs; assay type: functional; details: isolate 407/10, 24 h, read-out: MBC99.9
[9] = system: Staphylococcus epidermidis; assay: Bactericidal activity against methicillin-resistant Staphylococcus epidermidis isolate 470/11 after 24 hrs; assay type: functional; details: isolate 470/11, 24 h, read-out: MBC99.9
[10] = system: Escherichia coli; assay: Antimicrobial activity against Escherichia coli ATCC 25922 after 18 hrs by twofold serial broth dilution method; assay type: functional; details: ATCC 25922, 18 h
[11] = system: Staphylococcus epidermidis; assay: Antimicrobial activity against methicillin-resistant Staphylococcus epidermidis isolate 424/10 after 18 hrs by twofold serial broth dilution method; assay type: functional; details: isolate 424/10, 18 h
[12] = system: Staphylococcus epidermidis; assay: Antimicrobial activity against Staphylococcus epidermidis ATCC 35984 after 18 hrs by twofold serial broth dilution method; assay type: functional; details: ATCC 35984, 18 h
[13] = system: Staphylococcus epidermidis; assay: Bactericidal activity against methicillin-resistant Staphylococcus epidermidis isolate 409/10 after 24 hrs; assay type: functional; details: isolate 409/10, 24 h, read-out: MBC99.9
[14] = system: Staphylococcus epidermidis; assay: Antimicrobial activity against methicillin-resistant Staphylococcus epidermidis isolate 457/11 after 18 hrs by twofold serial broth dilution method; assay type: functional; details: isolate 457/11, 18 h
[15] = system: Staphylococcus epidermidis; assay: Antimicrobial activity against methicillin-resistant Staphylococcus epidermidis isolate 454/11 after 18 hrs by twofold serial broth dilution method; assay type: functional; details: isolate 454/11, 18 h
[16] = system: Escherichia coli; assay: Bactericidal activity against Escherichia coli ATCC 10538 after 24 hrs; assay type: functional; details: ATCC 10538, 24 h, read-out: MBC99.9
[17] = system: Staphylococcus epidermidis; assay: Bactericidal activity against methicillin-resistant Staphylococcus epidermidis isolate 403/10 after 24 hrs; assay type: functional; details: isolate 403/10, 24 h, read-out: MBC99.9
[18] = system: Pseudomonas aeruginosa; assay: Bactericidal activity against Pseudomonas aeruginosa ATCC 15442 after 24 hrs; assay type: functional; details: ATCC 15442, 24 h, read-out: MBC99.9
[19] = system: Pseudomonas aeruginosa; assay: Antimicrobial activity against Pseudomonas aeruginosa NCTC 6749 after 18 hrs by twofold serial broth dilution method; assay type: functional; details: NCTC 6749, 18 h
[20] = system: Staphylococcus epidermidis; assay: Bactericidal activity against methicillin-resistant Staphylococcus epidermidis isolate 459/11 after 24 hrs; assay type: functional; details: isolate 459/11, 24 h, read-out: MBC99.9
[21] = system: Pseudomonas aeruginosa; assay: Bactericidal activity against Pseudomonas aeruginosa NCTC 6749 after 24 hrs; assay type: functional; details: NCTC 6749, 24 h, read-out: MBC99.9
[22] = system: Staphylococcus epidermidis; assay: Bactericidal activity against methicillin-resistant Staphylococcus epidermidis isolate 424/10 after 24 hrs; assay type: functional; details: isolate 424/10, 24 h, read-out: MBC99.9
[23] = system: Staphylococcus aureus; assay: Antimicrobial activity against Staphylococcus aureus ATCC 25923 after 18 hrs by twofold serial broth dilution method; assay type: functional; details: ATCC 25923, 18 h
[24] = system: Staphylococcus epidermidis; assay: Antimicrobial activity against methicillin-resistant Staphylococcus epidermidis isolate 460/11 after 18 hrs by twofold serial broth dilution method; assay type: functional; details: isolate 460/11, 18 h
[25] = system: Escherichia coli; assay: Antimicrobial activity against Escherichia coli NCTC 8196 after 18 hrs by twofold serial broth dilution method; assay type: functional; details: NCTC 8196, 18 h
[26] = system: Staphylococcus aureus; assay: Antimicrobial activity against Staphylococcus aureus […] after 18 hrs by twofold serial broth dilution method; assay type: functional
[27] = system: Staphylococcus epidermidis; assay: Antimicrobial activity against methicillin-resistant Staphylococcus epidermidis isolate 422/10 after 18 hrs by twofold serial broth dilution method; assay type: functional; details: isolate 422/10, 18 h
[28] = system: Staphylococcus aureus; assay: Bactericidal activity against Staphylococcus aureus ATCC 6538 after 24 hrs; assay type: functional; details: ATCC 6538, 24 h, read-out: MBC99.9
[29] = system: Staphylococcus aureus; assay: Bactericidal activity against Staphylococcus aureus NCTC 4163 after 24 hrs; assay type: functional; details: NCTC 4163, 24 h, read-out: MBC99.9
[30] = system: Staphylococcus epidermidis; assay: Bactericidal activity against methicillin-resistant Staphylococcus epidermidis isolate 455/11 after 24 hrs; assay type: functional; details: isolate 455/11, 24 h, read-out: MBC99.9
[31] = system: Bacillus anthracis; assay: Antimicrobial activity against Bacillus anthracis 34F2 after 18 hrs by twofold serial broth dilution method; assay type: functional; details: 34F2, 18 h
[32] = system: Staphylococcus epidermidis; assay: Antimicrobial activity against methicillin-resistant Staphylococcus epidermidis isolate 409/10 after 18 hrs by twofold serial broth dilution method; assay type: functional; details: isolate 409/10, 18 h
[33] = system: Escherichia coli; assay: Antimicrobial activity against Escherichia coli ATCC 10538 after 18 hrs by twofold serial broth dilution method; assay type: functional; details: ATCC 10538, 18 h
[34] = system: Staphylococcus aureus; assay: Antimicrobial activity against Staphylococcus aureus NCTC 4163 after 18 hrs by twofold serial broth dilution method; assay type: functional; details: NCTC 4163, 18 h
[35] = system: Pseudomonas aeruginosa; assay: Bactericidal activity against Pseudomonas aeruginosa ATCC 27853 after 24 hrs; assay type: functional; details: ATCC 27853, 24 h, read-out: MBC99.9
[36] = system: Staphylococcus epidermidis; assay: Antimicrobial activity against methicillin-resistant Staphylococcus epidermidis isolate 458/11 after 18 hrs by twofold serial broth dilution method; assay type: functional; details: isolate 458/11, 18 h
[37] = system: Staphylococcus epidermidis; assay: Antimicrobial activity against methicillin-resistant Staphylococcus epidermidis isolate 455/11 after 18 hrs by twofold serial broth dilution method; assay type: functional; details: isolate 455/11, 18 h
[38] = system: Staphylococcus epidermidis; assay: Bactericidal activity against methicillin-resistant Staphylococcus epidermidis isolate 457/11 after 24 hrs; assay type: functional; details: isolate 457/11, 24 h, read-out: MBC99.9
[39] = system: Staphylococcus aureus; assay: Bactericidal activity against Staphylococcus aureus ATCC 25923 after 24 hrs; assay type: functional; details: ATCC 25923, 24 h, read-out: MBC99.9
[40] = system: Staphylococcus epidermidis; assay: Bactericidal activity against Staphylococcus epidermidis ATCC 35984 after 24 hrs; assay type: functional; details: ATCC 35984, 24 h, read-out: MBC99.9
[41] = system: Bacillus subtilis; assay: Genotoxicity in rec-positive Bacillus subtilis H17 at 2 ug/9 mm disc after 24 hrs by disc diffusion method; assay type: toxicity, organism-based
[42] = system: Staphylococcus epidermidis; assay: Bactericidal activity against methicillin-resistant Staphylococcus epidermidis isolate 460/11 after 24 hrs; assay type: functional; details: isolate 460/11, 24 h, read-out: MBC99.9
[43] = system: Bacillus subtilis; assay: Genotoxicity in rec-negative Bacillus subtilis M45 at 2 ug/9 mm disc after 24 hrs by disc diffusion method; assay type: toxicity, organism-based

Work on `CCCN(CCC)C(=O)[C@H](CC)[C@H]1CC[C@H](C)[C@H]([C@@H](C)[C@H](O)[C@H](C)C(=O)[C@H](CC)[C@H]2O[C@]3(C=C[C@@H](O)[C@]4(CC[C@@](C)([C@H]5CC[C@](O)(CC)[C@H](C)O5)O4)O3)[C@H](C)C[C@@H]2C)O1` yielded an MIC [1] of 4 µg/mL (≈ 4.8 µM), an MIC [2] greater than 256 µg/mL and an MBC [3] of 256 µg/mL (≈ 307 µM). The MIC [4] was 4 µg/mL (≈ 4.8 µM), the MIC [5] was 4 µg/mL (≈ 4.8 µM) and the MBC [6] was 128 µg/mL (≈ 153 µM). For the same molecule, the MBC [7] was 256 µg/mL (≈ 307 µM), the MBC [8] was 256 µg/mL (≈ 307 µM) and the MBC [9] was 256 µg/mL (≈ 307 µM). It also gave an MIC [10] greater than 256 µg/mL, an MIC [11] of 8 µg/mL (≈ 9.59 µM) and an MIC [12] of 2 µg/mL (≈ 2.4 µM). For the same molecule, the MBC [13] was 128 µg/mL (≈ 153 µM), the MIC [14] was 8 µg/mL (≈ 9.59 µM) and the MIC [15] was 4 µg/mL (≈ 4.8 µM). The MBC [16] was greater than 256 µg/mL, the MBC [17] was 128 µg/mL (≈ 153 µM) and the MBC [18] was greater than 256 µg/mL. It also gave an MIC [19] greater than 256 µg/mL, an MBC [20] of 128 µg/mL (≈ 153 µM) and an MBC [21] greater than 256 µg/mL. It also gave an MBC [22] of 256 µg/mL (≈ 307 µM), an MIC [23] of 1 µg/mL (≈ 1.2 µM) and an MIC [24] of 8 µg/mL (≈ 9.59 µM). For the same molecule, the MIC [25] was greater than 256 µg/mL, the MIC [26] was 2 µg/mL (≈ 2.4 µM) and the MIC [27] was 8 µg/mL (≈ 9.59 µM). The MBC [28] was 256 µg/mL (≈ 307 µM), the MBC [29] was greater than 256 µg/mL and the MBC [30] was 256 µg/mL (≈ 307 µM). The MIC [31] was 4 µg/mL (≈ 4.8 µM), the MIC [32] was 8 µg/mL (≈ 9.59 µM) and the MIC [33] was greater than 256 µg/mL. The MIC [34] was 2 µg/mL (≈ 2.4 µM), the MBC [35] was greater than 256 µg/mL and the MIC [36] was 8 µg/mL (≈ 9.59 µM). For the same molecule, the MIC [37] was 8 µg/mL (≈ 9.59 µM), the MBC [38] was 256 µg/mL (≈ 307 µM) and the MBC [39] was greater than 256 µg/mL. The MBC [40] was 256 µg/mL (≈ 307 µM), the “diameter of the inhibition zone (DIZ)” value [41] was 28 mm and the MBC [42] was 256 µg/mL (≈ 307 µM). For the same molecule, the “diameter of the inhibition zone (DIZ)” value [43] was 26 mm.
